From patent US20160106743A1, “TOPOISOMERASE II POISONS AND METHODS OF MAKING AND USING SAME” (THE UNIVERSITY OF ROCHESTER, priority 2014, published 2016)
Entries after “also recorded” stand apart in the source; their conditions may differ.

How the values were obtained:
purified yeast Top2 = target: T1, purified yeast Top2 (Saccharomyces cerevisiae, UniProt P06786); assay: Plasmid DNA (pUC18) cleavage by purified yeast Top2 (double strand breaks, linear form); assay type: biochemical; details: 10 μM etoposide or 1, 10 or 100 μM Compound 1, 150 ng purified yeast Top2, FIG. 5
T1 sequence (P06786 1-1428): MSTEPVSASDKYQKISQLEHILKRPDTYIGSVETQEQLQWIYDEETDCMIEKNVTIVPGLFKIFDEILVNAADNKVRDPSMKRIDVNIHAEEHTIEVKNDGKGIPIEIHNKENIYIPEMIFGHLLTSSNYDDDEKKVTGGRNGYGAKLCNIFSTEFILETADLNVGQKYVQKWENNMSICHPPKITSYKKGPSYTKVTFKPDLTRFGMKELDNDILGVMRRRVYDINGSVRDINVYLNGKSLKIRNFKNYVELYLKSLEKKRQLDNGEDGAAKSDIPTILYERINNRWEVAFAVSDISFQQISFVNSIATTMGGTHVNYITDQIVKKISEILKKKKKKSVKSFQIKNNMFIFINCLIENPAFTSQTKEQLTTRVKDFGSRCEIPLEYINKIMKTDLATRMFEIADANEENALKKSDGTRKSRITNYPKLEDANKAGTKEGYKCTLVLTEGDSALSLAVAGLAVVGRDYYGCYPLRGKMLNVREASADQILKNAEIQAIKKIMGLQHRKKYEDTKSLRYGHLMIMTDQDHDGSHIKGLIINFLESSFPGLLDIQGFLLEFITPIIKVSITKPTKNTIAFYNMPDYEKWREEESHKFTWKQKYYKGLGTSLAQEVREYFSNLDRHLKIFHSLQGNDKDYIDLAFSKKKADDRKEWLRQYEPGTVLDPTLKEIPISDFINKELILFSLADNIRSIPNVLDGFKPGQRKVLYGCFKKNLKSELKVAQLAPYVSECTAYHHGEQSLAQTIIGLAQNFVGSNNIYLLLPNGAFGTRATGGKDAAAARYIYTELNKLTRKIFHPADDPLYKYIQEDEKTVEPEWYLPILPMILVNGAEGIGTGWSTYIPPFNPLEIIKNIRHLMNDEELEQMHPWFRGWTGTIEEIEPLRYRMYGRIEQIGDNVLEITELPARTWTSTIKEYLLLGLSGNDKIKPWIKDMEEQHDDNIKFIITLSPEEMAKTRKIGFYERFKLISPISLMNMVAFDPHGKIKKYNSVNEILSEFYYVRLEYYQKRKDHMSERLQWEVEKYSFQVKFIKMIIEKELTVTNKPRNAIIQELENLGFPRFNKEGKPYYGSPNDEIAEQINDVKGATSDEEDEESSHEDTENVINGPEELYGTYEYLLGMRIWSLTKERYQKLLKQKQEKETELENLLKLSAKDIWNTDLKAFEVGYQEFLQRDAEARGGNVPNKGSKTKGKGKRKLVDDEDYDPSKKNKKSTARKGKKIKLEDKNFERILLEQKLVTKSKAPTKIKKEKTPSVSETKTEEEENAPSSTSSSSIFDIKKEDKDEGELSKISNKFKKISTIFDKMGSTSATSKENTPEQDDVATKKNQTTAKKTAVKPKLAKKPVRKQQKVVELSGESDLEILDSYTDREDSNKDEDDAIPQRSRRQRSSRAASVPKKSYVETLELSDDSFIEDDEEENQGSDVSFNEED
Experimental: Supercoiled (sc) plasmid DNA (pUC18) was exposed to 10 μM etoposide or 1, 10 or 100 μM Compound 1 in the presence and absence of 150 ng of purified yeast Top2 as described (Nitiss et al. (2012) Curr Protoc. Pharmacol. Chapter 3: Unit 3.3) (FIG. 5). TOP2 poisons induce Top2cc adducts containing double strand breaks. Double strand DNA breaks convert supercoiled (sc) pUC18 to a linear (lin) form.

[1] = tested on: Saccharomyces cerevisiae strain BY4741 carrying an empty vector; assay: Yeast dilution growth on agar media, cells carrying an empty vector; assay type: cell-based; details: Compound 1 10 μM in 0.1% DMSO, growth recorded after 48 h, FIG. 3
Experimental: (§1) Three-fold dilutions of Saccharomyces cerevisiae strain BY4741 overexpressing yeast TOP1, TOP2, or TOP3 from plasmid vectors were plated on agar media containing either 0.1% DMSO or Compound 1 (10 μM) in 0.1% DMSO (FIG. 3). Growth was recorded after 48 h. TOP1, TOP2, and TOP3 overexpressing cells grew at approximately the same rate as cells carrying an empty vector (top panel). […] However, Compound 1 was toxic to cells overexpressing TOP2. This phenomenon is characteristic of TOP2 poisons that stabilize toxic Top2cc adducts.

[2] = tested on: yeast cells overexpressing TOP2; assay: Yeast culture growth rate, TOP2 overexpressed from a plasmid vector; assay type: cell-based; details: increasing concentrations of Compound 1, FIG. 4
Description: (§2) Yeast cultures overexpressing native TOP2 (TOP2) or an empty expression vector (empty) were exposed to increasing concentrations of Compound 1 (FIG. 4). […] This is an unusual property for a TOP2 poison, most or all of which are lethal at high concentrations.

[3] = tested on: Human HT1080 fibrosarcoma cells; assay: HT1080 cell viability, alone and combined with doxorubicin, vinblastine or etoposide; assay type: cell-based; parameters: viability of HT1080 cells, compound alone: dose or concentration left out as unconfirmed
Experimental: Human HT1080 fibrosarcoma cells were exposed for 48 hrs to DMSO (vehicle control), 0.5 μM doxorubicin, 0.5 nM vinblastine, and/or Compound 1 at the indicated concentrations (FIGS. 6A-6C, respectively). Viable cells remaining on the plates were quantified after 48 hrs. […] (FIG. 6B) Compound 1 enhances doxorubicin toxicity at concentrations as low as 2.5 μM. 10 μM Compound 1 enhances doxorubicin cytotoxicity several fold. […] The vinblastine results are inconsistent with Compound 1 acting by inhibition of multidrug resistance pumps, which, when inhibited, increase the toxicity of multiple cytotoxic drugs including vinblastine. […] Average values and standard deviation of the means are plotted. P-values determined by student t-test are shown for doxorubicin enhancement (B). DMSO (A) and doxorubicin (B) data were based on the average of 6 biological replicates. Vinblastine data (C) was based on three biological replicates.

Human Top2-α = target: T2, Human Top2-α (Homo sapiens, UniProt P11388); assay: Human Top2-α decatenation of kinetoplastid DNA (gel electrophoresis, densitometry); assay type: biochemical; details: increasing concentrations of Compound 1, 37° C. for 15 min, FIG. 1
T2 construct: purchased Topogen, Inc; Port Orange Fla
T2 sequence (P11388 whole entry): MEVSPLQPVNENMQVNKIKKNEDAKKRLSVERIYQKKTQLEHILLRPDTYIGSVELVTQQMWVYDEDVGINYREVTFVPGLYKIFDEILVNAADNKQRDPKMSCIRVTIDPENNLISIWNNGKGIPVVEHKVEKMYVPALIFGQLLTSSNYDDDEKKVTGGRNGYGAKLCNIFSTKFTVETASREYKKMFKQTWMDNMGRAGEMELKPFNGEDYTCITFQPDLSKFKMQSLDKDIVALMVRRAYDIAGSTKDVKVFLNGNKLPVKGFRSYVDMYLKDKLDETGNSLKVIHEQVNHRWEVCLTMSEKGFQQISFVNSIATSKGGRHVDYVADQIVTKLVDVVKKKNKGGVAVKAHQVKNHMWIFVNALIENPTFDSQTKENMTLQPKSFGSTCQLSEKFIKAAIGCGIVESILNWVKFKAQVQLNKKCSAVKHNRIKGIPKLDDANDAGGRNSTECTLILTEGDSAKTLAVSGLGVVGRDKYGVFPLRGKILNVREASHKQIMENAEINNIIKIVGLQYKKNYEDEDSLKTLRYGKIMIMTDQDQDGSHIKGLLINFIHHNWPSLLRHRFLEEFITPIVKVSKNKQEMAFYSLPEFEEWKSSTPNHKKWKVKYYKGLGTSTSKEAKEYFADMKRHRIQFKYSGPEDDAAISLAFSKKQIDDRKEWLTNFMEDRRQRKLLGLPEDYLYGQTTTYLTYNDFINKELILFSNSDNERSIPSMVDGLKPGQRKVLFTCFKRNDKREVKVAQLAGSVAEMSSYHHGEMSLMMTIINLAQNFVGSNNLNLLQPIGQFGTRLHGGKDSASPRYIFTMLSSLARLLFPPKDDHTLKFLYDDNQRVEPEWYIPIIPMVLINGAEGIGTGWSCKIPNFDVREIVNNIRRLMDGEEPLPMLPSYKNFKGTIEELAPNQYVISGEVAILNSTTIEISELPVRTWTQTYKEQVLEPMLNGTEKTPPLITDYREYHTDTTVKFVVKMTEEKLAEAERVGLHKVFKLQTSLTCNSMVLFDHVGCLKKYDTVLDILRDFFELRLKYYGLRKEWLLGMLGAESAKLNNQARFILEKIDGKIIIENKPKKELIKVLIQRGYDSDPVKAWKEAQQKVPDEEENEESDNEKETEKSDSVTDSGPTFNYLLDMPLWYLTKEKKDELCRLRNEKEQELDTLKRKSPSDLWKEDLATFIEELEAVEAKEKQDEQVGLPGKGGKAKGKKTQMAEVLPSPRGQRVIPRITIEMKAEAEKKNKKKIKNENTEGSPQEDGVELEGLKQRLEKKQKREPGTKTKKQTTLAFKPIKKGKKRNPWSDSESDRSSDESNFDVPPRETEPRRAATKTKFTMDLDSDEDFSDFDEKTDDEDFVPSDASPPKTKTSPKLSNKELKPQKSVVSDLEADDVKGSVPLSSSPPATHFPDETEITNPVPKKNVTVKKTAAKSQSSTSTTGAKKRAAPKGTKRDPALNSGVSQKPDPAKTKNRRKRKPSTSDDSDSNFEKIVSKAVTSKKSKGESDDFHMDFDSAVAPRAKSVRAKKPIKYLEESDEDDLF
Experimental: Human Top2-α decatenation of kinetoplastid DNA (kDNA) was visualized by gel electrophoresis. Human Top2-α (Topogen, Inc; Port Orange Fla.) was added to 0.2 μg of kDNA in the presence of 1% DMSO (vehicle control) without or with increasing concentrations of Compound 1. Reactions were incubated at 37° C. for 15 min and terminated by addition of an SDS buffer. Samples were resolved by 1% agarose 1×TAE gel electrophoresis and stained with ethidium bromide. Decatenated versus intact kDNA species were quantified by densitometry (FIG. 1).

[4] = tested on: yeast cells expressing native levels of Top2; assay: Yeast culture growth rate, native levels of TOP2 (empty expression vector); assay type: cell-based; details: FIG. 4
Description: as §2

[5] = tested on: Noncancer MJT cells (primary foreskin fibroblasts); assay: MJT noncancer cell viability with and without doxorubicin; assay type: cell-based, human
puc118-based plasmid DNA = assay: Topoisomerase I (Top1) DNA unwinding assay for intercalation; details: 15 min at 25° C., then 1 h with added Top1, FIG. 2
Description: Samples were resolved by electrophoresis through 1% agarose 1×TAE gel and species *, **, and *** quantitated by densitometry (FIG. 2). Top1 alone (Lane 2) converts the DNA to a relaxed form (**) and some residual intermediate relaxed species (***).

[6] = tested on: Saccharomyces cerevisiae strain BY4741 overexpressing yeast TOP3; assay: Yeast dilution growth on agar media, cells overexpressing TOP3; assay type: cell-based; details: Compound 1 10 μM in 0.1% DMSO, growth recorded after 48 h, FIG. 3
Experimental: as §1

[7] = tested on: Saccharomyces cerevisiae strain BY4741 overexpressing yeast TOP1; assay: Yeast dilution growth on agar media, cells overexpressing TOP1; assay type: cell-based; details: Compound 1 10 μM in 0.1% DMSO, growth recorded after 48 h, FIG. 3
Experimental: as §1

[8] = tested on: Saccharomyces cerevisiae strain BY4741 overexpressing yeast TOP2; assay: Yeast dilution growth on agar media, cells overexpressing TOP2; assay type: cell-based; details: Compound 1 10 μM in 0.1% DMSO, growth recorded after 48 h, FIG. 3
Experimental: as §1

Row | SMILES | formation of the linear form of pUC18 (stable double strand breaks, Top2cc adducts) (purified yeast Top2) | growth of cells carrying an empty vector on agar [1] | growth in cells overexpressing TOP2 from a plasmid vector [2] | enhancement of doxorubicin cytotoxicity ([3]; 10 μM Compound 1, 0.5 μM doxorubicin, 48 hrs, FIG. 6B) | viability of HT1080 cells, compound alone ([3]; 48 hrs, DMSO vehicle, FIG. 6A) | lowest concentration enhancing doxorubicin toxicity ([3]; 48 hrs, with 0.5 μM doxorubicin, FIG. 6B) [µM] | enhancement of HT1080 cell killing at multiple doxorubicin concentrations ([3]; various concentrations of doxorubicin and Compound 1, FIG. 6D) | enhancement of vinblastine toxicity ([3]; with 0.5 nM vinblastine, 48 hrs, FIG. 6C) | inhibition of decatenation of kinetoplastid DNA by human Top2-α (Human Top2-α) | growth in cells expressing native levels of Top2 at high concentrations ([4]; concentrations as high as 100 μM) | growth rate in cells expressing native levels of Top2 ([4]; concentrations below 10 μM) | toxicity to MJT cells, compound alone ([5]; performed as in Example 6, FIG. 7) | enhancement of doxorubicin toxicity in MJT cells ([5]; various concentrations of doxorubicin with and without Compound 1, FIG. 7) | unwinding of plasmid DNA in presence of Top1 (intercalation) (puc118-based plasmid DNA) | growth of cells overexpressing TOP3 on agar [6] | growth of cells overexpressing TOP1 on agar [7] | growth of cells overexpressing TOP2 on agar [8]
1 | c1ccc2nc3c(nc2c1)[nH]c1ccccc13 [Compound 1, 6H-indolo[2,3-b]quinoxaline] | induced yeast Top2 to form the linear form of pUC18 | no effect on the growth | almost completely arrests growth | several fold | no effect on the viability | 2.5 | dose-dependent enhancement | does not enhance vinblastine toxicity | inhibits human Top2-α at Micromolar Concentrations; also recorded: inhibited by increasing concentrations | cells continue to thrive | partial dose-dependent inhibition of growth rates | not itself toxic | nor does it enhance the toxicity of doxorubicin | do not unwind the DNA | no effect on the growth | no effect on the growth | toxic
2 | COc1cc([C@@H]2c3cc4c(cc3[C@@H](O[C@@H]3O[C@@H]5CO[C@@H](C)O[C@H]5[C@H](O)[C@H]3O)[C@H]3COC(=O)[C@H]23)OCO4)cc(OC)c1O [etoposide, reference compound] | induced yeast Top2 to form the linear form of pUC18 | – | – | – | – | – | – | – | – | – | – | – | – | do not unwind the DNA | – | – | –
3 | COc1cccc2c1C(=O)c1c(O)c3c(c(O)c1C2=O)C[C@@](O)(C(=O)CO)C[C@@H]3O[C@H]1C[C@H](N)[C@H](O)[C@H](C)O1 [doxorubicin] | – | – | – | – | – | – | – | – | – | – | – | – | – | DNA is unwound | – | – | –
